A short description of test [1]: THP-1 cell cytotoxicity, dose response, cytotoxicity control for non-replicating M. tuberculosis project (AID 489025). In kind it is functional.
Test [2] concerns the target Luciferin 4-monooxygenase (Photinus pyralis, UniProt P08659). Briefly: firefly luciferase enzyme inhibitors, dose response, biochemical, luminescence (AID 1891).
Another test has as its target T1, Caspase-7 (Homo sapiens, UniProt P55210).
T1 sequence (P55210 whole entry): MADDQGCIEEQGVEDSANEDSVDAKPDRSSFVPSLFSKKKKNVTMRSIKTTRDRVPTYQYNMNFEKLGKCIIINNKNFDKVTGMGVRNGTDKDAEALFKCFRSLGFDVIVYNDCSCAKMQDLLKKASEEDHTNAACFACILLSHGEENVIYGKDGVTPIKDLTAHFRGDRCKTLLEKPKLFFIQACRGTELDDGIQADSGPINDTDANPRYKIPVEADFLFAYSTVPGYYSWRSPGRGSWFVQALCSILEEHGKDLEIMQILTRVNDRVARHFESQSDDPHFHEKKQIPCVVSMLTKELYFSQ
The experiment in a line: human caspase-7 inhibitors, dose response, selectivity assay for caspase-6 inhibitor project, biochemical, DEVD-R110 fluorescence, cherry-pick (AID 743295). The test is classed as […].

A further test can be described thus: cells. The test is classed as functional.
The target of a further test is Paired box protein Pax-8 (Homo sapiens, UniProt Q06710). Briefly: inhibitors of PAX8-driven TPO luciferase reporter, dose response, RMG-I cells, cherry-pick (AID 687027).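 Further: luciferase reporter driven by Pax8 target thyroperoxidase promoter measured by SteadyGlo luminescence.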 In kind it is functional, cell-based. In general terms: Reporter assays use an easily measured gene product as a stand-in for the process of interest.
Chain of Paired box protein Pax-8 (Q06710 whole entry): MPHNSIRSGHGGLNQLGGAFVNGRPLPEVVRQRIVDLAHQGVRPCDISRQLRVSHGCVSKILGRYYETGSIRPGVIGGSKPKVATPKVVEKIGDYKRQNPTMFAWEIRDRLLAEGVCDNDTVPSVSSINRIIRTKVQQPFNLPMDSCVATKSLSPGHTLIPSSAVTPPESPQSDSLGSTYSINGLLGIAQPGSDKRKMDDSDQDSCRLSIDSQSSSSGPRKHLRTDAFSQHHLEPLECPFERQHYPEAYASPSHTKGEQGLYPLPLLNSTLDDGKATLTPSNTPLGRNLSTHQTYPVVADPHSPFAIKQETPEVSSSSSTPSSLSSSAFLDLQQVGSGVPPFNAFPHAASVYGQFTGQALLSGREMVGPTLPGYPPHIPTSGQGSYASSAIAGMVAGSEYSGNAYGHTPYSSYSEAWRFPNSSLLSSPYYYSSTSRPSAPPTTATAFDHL
The test system of another test is HEK293. Briefly: HEK cell cytotoxicity by LDH release, dose response, cytotoxicity control for IDE activator project, fluorescence, HEK cells (AID 588440).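 Further: cytotoxicity by LDH release measuring loss of membrane integrity.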 In kind it is functional, cell-based. The conditions noted are these: Homo sapiens.
Test [3] concerns the target T2, Short transient receptor potential channel 4 (Mus musculus, UniProt Q9QUQ5).
T2 sequence (Q9QUQ5 whole entry): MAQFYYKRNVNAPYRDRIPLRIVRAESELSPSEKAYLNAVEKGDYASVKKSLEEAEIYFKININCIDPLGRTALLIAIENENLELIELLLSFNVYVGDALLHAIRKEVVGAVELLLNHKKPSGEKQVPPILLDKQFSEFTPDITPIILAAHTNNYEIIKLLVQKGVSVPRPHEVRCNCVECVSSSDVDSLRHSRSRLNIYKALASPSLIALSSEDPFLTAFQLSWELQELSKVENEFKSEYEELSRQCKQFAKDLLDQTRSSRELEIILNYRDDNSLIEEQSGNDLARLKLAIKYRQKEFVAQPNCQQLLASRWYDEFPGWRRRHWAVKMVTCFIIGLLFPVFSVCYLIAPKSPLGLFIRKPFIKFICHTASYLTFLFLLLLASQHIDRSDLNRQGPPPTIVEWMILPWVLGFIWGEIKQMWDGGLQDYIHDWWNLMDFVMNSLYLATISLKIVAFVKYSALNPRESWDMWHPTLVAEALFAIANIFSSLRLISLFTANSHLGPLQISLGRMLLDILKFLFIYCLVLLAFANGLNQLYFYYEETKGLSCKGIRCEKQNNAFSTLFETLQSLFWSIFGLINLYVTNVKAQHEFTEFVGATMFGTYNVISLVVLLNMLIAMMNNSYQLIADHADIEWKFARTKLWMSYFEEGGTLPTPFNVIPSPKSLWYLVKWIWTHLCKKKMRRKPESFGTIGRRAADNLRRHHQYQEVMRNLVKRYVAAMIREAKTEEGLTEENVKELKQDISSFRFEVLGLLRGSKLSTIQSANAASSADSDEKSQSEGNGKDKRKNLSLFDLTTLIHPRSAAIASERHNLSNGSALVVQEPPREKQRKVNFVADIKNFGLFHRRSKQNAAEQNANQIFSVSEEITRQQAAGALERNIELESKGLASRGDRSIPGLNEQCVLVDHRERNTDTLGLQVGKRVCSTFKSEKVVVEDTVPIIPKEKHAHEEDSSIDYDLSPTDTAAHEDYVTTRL
Briefly: mouse TRPC4 channel activators, dose response, cell-based, HEK293 TRPC4/mu-opioid, Fluo-4 calcium (AID 434937). In kind it is functional.

Test [4] deals with T3, Ubiquitin-conjugating enzyme E2 N (Homo sapiens, UniProt P61088).
T3 sequence (P61088 whole entry): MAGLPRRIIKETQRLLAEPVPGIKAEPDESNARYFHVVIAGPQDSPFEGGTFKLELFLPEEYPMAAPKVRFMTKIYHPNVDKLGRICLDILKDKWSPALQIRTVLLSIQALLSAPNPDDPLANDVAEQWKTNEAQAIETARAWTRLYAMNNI
In kind it is functional.

Test [5] deals with Eukaryotic elongation factor 2 kinase (Homo sapiens, UniProt O00418). In kind it is functional.
In the next test the target is SRSF protein kinase 1 (Homo sapiens, UniProt Q96SB4). The test is classed as functional.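 Further: measured as one member of a kinome-wide kinase profiling panel.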
Chain of SRSF protein kinase 1 (Q96SB4 whole entry): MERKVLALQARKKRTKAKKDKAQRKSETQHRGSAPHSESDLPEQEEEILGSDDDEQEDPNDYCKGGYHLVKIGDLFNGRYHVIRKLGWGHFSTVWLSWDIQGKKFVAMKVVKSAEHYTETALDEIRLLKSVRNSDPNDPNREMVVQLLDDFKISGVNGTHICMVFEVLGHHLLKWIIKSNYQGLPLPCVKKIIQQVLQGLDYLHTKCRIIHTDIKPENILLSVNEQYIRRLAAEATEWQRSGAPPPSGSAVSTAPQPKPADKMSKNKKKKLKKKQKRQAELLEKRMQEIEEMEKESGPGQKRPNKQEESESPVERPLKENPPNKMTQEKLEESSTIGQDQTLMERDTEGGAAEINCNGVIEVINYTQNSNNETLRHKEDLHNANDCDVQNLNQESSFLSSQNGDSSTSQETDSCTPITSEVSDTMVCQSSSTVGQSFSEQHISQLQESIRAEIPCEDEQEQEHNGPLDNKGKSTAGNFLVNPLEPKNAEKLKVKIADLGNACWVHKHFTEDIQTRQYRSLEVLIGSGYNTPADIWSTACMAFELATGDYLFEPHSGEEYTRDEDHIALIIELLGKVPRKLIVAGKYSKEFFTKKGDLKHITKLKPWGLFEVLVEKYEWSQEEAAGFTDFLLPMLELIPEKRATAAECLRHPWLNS
Test [6] deals with Mitogen-activated protein kinase kinase kinase kinase 4 (Homo sapiens, UniProt O95819). The test is classed as functional.
Test [7] addresses Interleukin-1 receptor-associated kinase 4 (Homo sapiens, UniProt Q9NWZ3). The test is classed as functional.
The target in test [8] is MAP kinase-activated protein kinase 3 (Homo sapiens, UniProt Q16644). In kind it is functional.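 Further: value comes from a kinome-wide profiling panel in which MAPKAPK3 is one of the panel members.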
The target of test [9] is Macrophage colony-stimulating factor 1 receptor (Homo sapiens, UniProt P07333). In kind it is functional.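 Further: value comes from the Navigating the Kinome screening panel, CSF1R member.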
Chain of Macrophage colony-stimulating factor 1 receptor (P07333 whole entry): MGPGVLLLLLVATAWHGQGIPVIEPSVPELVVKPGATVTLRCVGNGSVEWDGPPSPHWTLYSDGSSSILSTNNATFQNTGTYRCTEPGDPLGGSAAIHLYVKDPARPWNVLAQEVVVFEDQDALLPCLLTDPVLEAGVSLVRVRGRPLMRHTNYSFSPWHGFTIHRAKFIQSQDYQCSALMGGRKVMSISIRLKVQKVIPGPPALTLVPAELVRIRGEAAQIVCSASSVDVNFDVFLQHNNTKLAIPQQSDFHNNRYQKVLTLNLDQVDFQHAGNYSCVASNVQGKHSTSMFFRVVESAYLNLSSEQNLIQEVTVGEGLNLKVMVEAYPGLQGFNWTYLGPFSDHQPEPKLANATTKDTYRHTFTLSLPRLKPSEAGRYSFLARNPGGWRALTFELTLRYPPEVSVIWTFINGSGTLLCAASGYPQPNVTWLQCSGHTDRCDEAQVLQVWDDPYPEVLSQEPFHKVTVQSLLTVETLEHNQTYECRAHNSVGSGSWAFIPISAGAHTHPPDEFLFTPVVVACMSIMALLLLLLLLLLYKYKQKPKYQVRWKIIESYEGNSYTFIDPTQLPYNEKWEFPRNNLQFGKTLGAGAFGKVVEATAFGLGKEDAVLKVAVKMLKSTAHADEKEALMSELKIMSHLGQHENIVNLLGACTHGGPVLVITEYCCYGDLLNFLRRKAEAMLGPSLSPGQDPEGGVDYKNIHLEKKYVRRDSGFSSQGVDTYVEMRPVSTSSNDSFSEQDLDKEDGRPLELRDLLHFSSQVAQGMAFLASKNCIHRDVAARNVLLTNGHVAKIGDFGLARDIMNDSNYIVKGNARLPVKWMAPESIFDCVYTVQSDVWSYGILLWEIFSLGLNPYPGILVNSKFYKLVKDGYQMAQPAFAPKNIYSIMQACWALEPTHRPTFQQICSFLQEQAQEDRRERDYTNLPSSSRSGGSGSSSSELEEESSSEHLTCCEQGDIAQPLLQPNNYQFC
For test [10], the target named is Homeodomain-interacting protein kinase 2 (Homo sapiens, UniProt Q9H2X6). In kind it is functional.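 Further: measured within a kinome-wide kinase profiling panel, HIPK2 being one panel member.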
Chain of Homeodomain-interacting protein kinase 2 (Q9H2X6 whole entry): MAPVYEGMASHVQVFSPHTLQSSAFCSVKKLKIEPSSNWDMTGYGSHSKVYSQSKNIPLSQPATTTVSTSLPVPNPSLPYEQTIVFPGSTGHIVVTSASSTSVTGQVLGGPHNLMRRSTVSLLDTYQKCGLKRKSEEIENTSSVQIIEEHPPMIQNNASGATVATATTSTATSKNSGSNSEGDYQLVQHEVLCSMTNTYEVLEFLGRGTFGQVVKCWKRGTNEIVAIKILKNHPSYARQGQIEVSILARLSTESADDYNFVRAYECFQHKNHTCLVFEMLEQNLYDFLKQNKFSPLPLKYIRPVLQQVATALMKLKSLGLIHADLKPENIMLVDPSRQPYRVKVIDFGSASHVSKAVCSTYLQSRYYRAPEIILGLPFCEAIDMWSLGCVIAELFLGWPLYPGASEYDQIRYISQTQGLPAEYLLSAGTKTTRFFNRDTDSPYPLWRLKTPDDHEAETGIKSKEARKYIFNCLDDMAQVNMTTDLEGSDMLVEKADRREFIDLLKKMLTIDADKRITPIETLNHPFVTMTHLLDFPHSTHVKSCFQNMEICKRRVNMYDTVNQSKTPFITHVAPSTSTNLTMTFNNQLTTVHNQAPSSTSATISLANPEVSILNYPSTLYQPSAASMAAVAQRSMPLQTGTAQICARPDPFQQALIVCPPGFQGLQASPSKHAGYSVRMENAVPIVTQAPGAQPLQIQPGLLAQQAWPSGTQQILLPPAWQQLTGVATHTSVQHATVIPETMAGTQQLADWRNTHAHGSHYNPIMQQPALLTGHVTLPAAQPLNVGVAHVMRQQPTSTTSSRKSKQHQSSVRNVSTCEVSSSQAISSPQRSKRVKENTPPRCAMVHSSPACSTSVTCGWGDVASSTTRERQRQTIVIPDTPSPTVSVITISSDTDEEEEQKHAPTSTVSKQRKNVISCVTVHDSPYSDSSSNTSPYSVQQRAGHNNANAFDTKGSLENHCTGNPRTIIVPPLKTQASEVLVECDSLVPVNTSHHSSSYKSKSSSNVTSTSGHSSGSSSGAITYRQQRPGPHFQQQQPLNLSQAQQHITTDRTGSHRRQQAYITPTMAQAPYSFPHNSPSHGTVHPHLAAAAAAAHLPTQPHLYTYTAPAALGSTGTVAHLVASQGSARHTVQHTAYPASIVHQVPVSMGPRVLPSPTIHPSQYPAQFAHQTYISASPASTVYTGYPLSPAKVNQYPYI
The target in test [11] is MAP kinase-activated protein kinase 2 (Homo sapiens, UniProt P49137). The test is classed as functional.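 Further: measured as one member of a kinome-wide kinase panel.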
Chain of MAP kinase-activated protein kinase 2 (P49137 whole entry): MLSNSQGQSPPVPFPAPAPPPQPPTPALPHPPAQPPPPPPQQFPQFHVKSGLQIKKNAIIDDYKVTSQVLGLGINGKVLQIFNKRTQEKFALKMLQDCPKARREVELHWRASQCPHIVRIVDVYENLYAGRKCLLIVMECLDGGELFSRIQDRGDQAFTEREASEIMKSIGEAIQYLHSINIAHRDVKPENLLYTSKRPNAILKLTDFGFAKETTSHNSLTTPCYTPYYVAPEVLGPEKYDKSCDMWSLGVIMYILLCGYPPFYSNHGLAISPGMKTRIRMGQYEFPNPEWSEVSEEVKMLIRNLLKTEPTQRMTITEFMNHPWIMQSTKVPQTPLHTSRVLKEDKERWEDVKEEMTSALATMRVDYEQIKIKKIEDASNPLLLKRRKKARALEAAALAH
Test [12] addresses Fibroblast growth factor receptor 3 (Homo sapiens, UniProt P22607). In kind it is functional.
For test [13], the target named is Tyrosine-protein kinase JAK2 (Homo sapiens, UniProt O60674). In kind it is functional.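 Further: JAK2 tested as one member of a kinase panel.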
For another test, the target named is Misshapen-like kinase 1 (Homo sapiens, UniProt Q8N4C8). The test is classed as functional.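 Further: kinome panel screen with MINK as the panel member.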
The target in test [14] is Receptor tyrosine-protein kinase erbB-4 (Homo sapiens, UniProt Q15303). In kind it is functional.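 Further: ERBB4 member of a kinome-wide kinase profiling panel.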
Test [15] deals with Serine/threonine-protein kinase D3 (Homo sapiens, UniProt O94806). The test is classed as functional.
For test [16], the target named is Casein kinase II subunit alpha (Homo sapiens, UniProt P68400). The test is classed as functional.
Chain of Casein kinase II subunit alpha (P68400 whole entry): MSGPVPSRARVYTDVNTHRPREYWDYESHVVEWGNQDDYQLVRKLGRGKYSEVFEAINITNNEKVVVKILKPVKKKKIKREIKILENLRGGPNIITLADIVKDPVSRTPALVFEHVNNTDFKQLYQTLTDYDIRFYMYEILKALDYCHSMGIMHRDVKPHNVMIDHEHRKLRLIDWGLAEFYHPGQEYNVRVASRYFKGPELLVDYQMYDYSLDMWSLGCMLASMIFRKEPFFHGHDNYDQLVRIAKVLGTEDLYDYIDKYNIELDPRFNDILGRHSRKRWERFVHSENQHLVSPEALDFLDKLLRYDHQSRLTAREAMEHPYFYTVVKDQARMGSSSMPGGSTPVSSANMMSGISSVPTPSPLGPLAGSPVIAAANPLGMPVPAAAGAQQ
Test [17] has as its target Dual specificity protein kinase CLK4 (Homo sapiens, UniProt Q9HAZ1). The test is classed as functional.
The target of test [18] is Casein kinase I isoform alpha (Homo sapiens, UniProt P48729). The test is classed as functional.
The target of test [19] is Cyclin-dependent kinase 5 (Homo sapiens, UniProt Q00535). In kind it is functional.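 Further: CDK5 measured as one member of a kinase profiling panel.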
Chain of Cyclin-dependent kinase 5 (Q00535 whole entry): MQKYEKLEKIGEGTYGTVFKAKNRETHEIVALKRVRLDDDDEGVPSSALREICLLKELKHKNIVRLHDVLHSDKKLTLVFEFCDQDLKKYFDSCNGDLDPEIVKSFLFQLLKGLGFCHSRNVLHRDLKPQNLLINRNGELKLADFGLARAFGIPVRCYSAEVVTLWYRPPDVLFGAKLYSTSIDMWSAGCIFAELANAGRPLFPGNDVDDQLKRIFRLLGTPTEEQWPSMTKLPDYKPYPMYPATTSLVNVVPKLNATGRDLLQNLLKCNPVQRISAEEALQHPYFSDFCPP
For test [20], the target named is Cell division cycle 7-related protein kinase (Homo sapiens, UniProt O00311). The test is classed as functional.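 Further: value obtained from a kinome-wide kinase panel.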

Each structure is given as a SMILES string. The source made the active and inactive calls.

This note sets out measurements from ChEMBL document CHEMBL1201862, “PubChem BioAssay data set” (2004).

Chain of Interleukin-1 receptor-associated kinase 4 (Q9NWZ3 whole entry): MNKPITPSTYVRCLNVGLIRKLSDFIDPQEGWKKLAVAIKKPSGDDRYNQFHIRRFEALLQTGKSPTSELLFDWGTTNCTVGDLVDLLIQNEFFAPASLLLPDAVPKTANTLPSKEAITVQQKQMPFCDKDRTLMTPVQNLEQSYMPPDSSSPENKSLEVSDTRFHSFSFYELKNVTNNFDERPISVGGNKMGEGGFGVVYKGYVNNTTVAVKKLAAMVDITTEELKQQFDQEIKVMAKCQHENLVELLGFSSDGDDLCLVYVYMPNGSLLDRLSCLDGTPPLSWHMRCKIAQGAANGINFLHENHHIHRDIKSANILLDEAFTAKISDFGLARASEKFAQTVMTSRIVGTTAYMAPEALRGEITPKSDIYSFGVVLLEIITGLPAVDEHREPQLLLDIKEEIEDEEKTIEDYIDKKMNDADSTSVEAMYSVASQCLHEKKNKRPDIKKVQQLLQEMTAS

A word on the CC50: it is the concentration giving 50% cytotoxicity. Broadly, the EC50 is the midpoint of the concentration-response curve. The term AC50 denotes the midpoint of the concentration-response curve, whichever way the signal moves. Broadly, the IC50 is the midpoint of a concentration-inhibition curve. For `O=[N+]([O-])c1c(Nc2ccccn2)cc(Cl)c2nonc12`, the CC50 in test [1] is 20.3 µM (active). The EC50 in [2] is reported as > 112 µM (not active). For the same compound, the AC50 at Caspase-7 was 20.3 µM (active). Besides, the concentration for half-maximal inhibition (IC50) in the test “cells” is 320 nM (active).
Regarding `CC[C@@H](C)[C@H](CNC)NC[C@@H](Cc1cccc2ccccc12)NCCc1cccc(C(F)(F)F)c1`, the concentration at half-maximal activity (AC50) on Paired box protein Pax-8 is 11.9 µM (active). Also, the concentration for half-maximal inhibition (IC50) with HEK293 is 8.67 µM (active); in test [4] it was > 20 µM (inactive). Further, the EC50 in test [3] was 9.44 µM (active).
One may read the Ki as the equilibrium dissociation constant of an inhibitor or competing ligand from its target. As for `CC(C)(CO)CNc1nccc(-c2c(-c3ccc(F)cc3)nc3c(CC4CC4)nccn23)n1`, the Ki in [5] was > 3.98 µM (inactive); on SRSF protein kinase 1 it was > 7.94 µM (inactive); in test [6] it was 3.98 µM (active); in test [7] it was > 10 µM (inactive); in [8], > 10 µM (inactive); in test [9] it was > 2.51 µM (inactive). The Ki in [10] was > 3.16 µM (inactive); in test [11] it was > 7.94 µM (inactive); in [12] it was > 2 µM (inactive); in test [13], > 1.58 µM (inactive); at Misshapen-like kinase 1, 3.16 µM (active); in test [14] it was > 3.98 µM (inactive). Further, the inhibition constant Ki in [15] was 5.01 µM (active); in [16] it was > 6.31 µM (inactive); in test [17], 3.98 µM (active); in test [18], 1.26 µM (active); in [19], > 10 µM (inactive); in [20], > 1.26 µM (inactive).
